Results published in patent publication US12319707B2, “Dosage unit form(s) comprising BTS and BTS(OMe) for use in boron neutron capture therapy and methods thereof” (TAE Life Sciences, priority 2021, dated 2025).

Tests used:
LAT-1 [1] = biological target: T1, LAT-1 (Homo sapiens, UniProt Q01650); assay: Boron accumulation in presence of LAT-1 inhibitors (unpublished); assay type: cell-based; conditions: unpublished earlier work of the applicant
Target sequence in this assay (Q01650 whole entry, species assumed): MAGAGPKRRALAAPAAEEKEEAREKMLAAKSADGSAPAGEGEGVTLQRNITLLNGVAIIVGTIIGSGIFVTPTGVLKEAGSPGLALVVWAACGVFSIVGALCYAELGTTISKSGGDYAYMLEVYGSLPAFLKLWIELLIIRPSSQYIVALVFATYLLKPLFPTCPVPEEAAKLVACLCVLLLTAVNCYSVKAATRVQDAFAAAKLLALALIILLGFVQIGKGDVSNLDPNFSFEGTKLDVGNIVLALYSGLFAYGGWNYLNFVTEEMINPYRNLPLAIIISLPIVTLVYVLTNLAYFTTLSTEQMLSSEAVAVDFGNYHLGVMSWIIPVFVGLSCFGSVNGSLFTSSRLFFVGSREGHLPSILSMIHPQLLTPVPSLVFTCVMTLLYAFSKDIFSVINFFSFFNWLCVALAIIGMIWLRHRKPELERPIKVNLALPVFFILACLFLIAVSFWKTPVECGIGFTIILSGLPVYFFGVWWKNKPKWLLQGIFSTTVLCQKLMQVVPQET
Target sequence in this assay (P08195 102-630 partner, species assumed): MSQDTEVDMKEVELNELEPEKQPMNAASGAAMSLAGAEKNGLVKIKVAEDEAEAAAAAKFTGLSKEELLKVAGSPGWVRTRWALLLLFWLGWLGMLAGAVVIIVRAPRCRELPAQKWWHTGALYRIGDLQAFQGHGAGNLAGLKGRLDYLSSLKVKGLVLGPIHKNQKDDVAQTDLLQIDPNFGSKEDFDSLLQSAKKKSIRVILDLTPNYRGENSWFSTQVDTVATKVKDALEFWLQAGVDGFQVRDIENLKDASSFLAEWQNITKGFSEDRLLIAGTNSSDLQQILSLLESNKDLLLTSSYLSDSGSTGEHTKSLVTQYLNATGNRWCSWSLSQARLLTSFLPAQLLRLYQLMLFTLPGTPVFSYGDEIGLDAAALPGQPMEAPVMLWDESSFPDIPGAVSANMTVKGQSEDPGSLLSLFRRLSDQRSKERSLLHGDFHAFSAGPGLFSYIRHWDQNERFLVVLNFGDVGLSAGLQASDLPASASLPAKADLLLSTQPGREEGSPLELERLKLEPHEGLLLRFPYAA

FaDu cells = assay: Boron uptake in FaDu cells in vitro (ICP-OES); assay type: cell-based, human; conditions: for intracellular boron concentration: equimolar 2.5 mM compound in HBSS, 2 hr, 37° C., ICP-OES
[2] = Cellular retention of boron after removal of boron source from the media; assay type: cell-based
[3] = Pharmacokinetics in non-tumor-bearing Balb/C mice (blood boron by ICP OES); assay type: in vivo; conditions: for CL / Vss: i.v. tail vein, Balb/C male mice, blood boron
Description: To determine the pharmacokinetics of BTS versus BPA (BPA-fructose) in blood, the following experiments were performed using the following protocols and under the parameters set forth in Table II. Briefly, […] of each compound ([…] and BPA-fructose) was injected into the tail vein of Balb/C non-tumor bearing male mice (5 mice per group). Blood was drawn at the following time points: 2, 5, 16, 30, 60, 120 and 240 min into EDTA-coated tubes. Boron concentration was measured using ICP OES following the digestion in concentrated nitric acid for one (1) hr. The boron concentration was normalized to 1 mL of blood and plotted using GraphPad Prizm. The PK parameters (see 20(B)) were obtain using PK Solver version 2.0 using compartmental analysis. BPA-fructose was used as a reference substance.

subcutaneous FaDu tumors = assay: Time-course biodistribution and tumor to blood ratio in mice bearing subcutaneous FaDu tumors; assay type: in vivo; conditions: 400 mg/kg bolus i.v.
Description: To determine the biodistribution of BTS and BTS(OMe) and the tumor to blood ration, the following experiments were performed using the following protocols. Briefly, all compounds tested, with the exception of BPA, were prepared as 100 mg/mL stocks. BPA was prepared as a fructose solution at 25 mg/ml. The concentrations were confirmed by ICP OES prior to the study. The blood and tissues (tumor, kidney, and pancreas) were harvested at the times indicated, weighed, and placed inside the Teflon containers and digested using a CEM microwave oven. The digested tissues were analyzed by ICP OES to determine the boron concentration.
All animal studies were carried out following the “Guide for the care and use the laboratory animals,” Eighth Edition and Animal Welfare Act (USDA). Briefly, human hypopharyngeal squamous cell carcinoma FaDu cells were maintained in DMEM, supplemented with L-glutamine and 10% FBS. Subcutaneous (s.c.) tumors were generated by injection of 2.5×10^6 cancer cells mixed at a 1:1 dilution with Matrigel (Corning Life Sciences) in the right flank of female CB17 SCID mice. Tumor sizes were determined by caliper measurements, and the tumor volume was calculated as width^2×Length/2, wherein width is the smallest dimension and length is the largest dimension. Tumors were allowed to grow untreated until they reached an approximate volume of 300 mm^3. At that point, animals were randomized and allocated to each treatment group based on tumor volume at the time of treatment initiation to ensure similar mean tumor size and variation in each group.
Each group received a single dose of BPA at […] or a test article at either 400 mg/kg or […] via intravenous tail vein injection. […] Two (2) hrs. post dose, blood was collected from each mouse from the submandibular vein into K2 EDTA coated tubes. Tumor and organs were collected for boron analysis.
In order to determine the biodistribution of BTS and BTS(OMe) in FaDu-tumor bearing mice and determine the most appropriate time to harvest the tumor and organs of interest during the subsequent dose-escalation studies, 400 mg/kg doses of both molecules were administered as a bolus i.v. injection. BPA-fructose was administered at a dose of […] due to its solubility constraints and the requirements for the maximum i.v. volume allowed. The boron compound accumulation in blood/organs was determined by ICP OES and expressed as μg boron per gram of tissue.

subcutaneous FaDu = assay: Dose titration, biodistribution and boron uptake using subcutaneous FaDu xenografts; assay type: in vivo, mice; conditions: 2 hr post injection
Description: To determine the biodistribution and boron uptake of BTS and BTS(OMe) in vivo, the following experiments were performed using the following protocols. Briefly, to evaluate the effect of increased dose level using bolus i.v. injection on the accumulation of boron in the tumor, SCID mice carrying subcutaneous FaDu were dosed with BTS and BTS(OMe) at the levels ranging from 400 to 1000 mg/kg.
The tumor and selected organs were harvested at two (2) hr. post injection and processed for ICP OES.

Solubility in water = assay type: physicochemical
Description: To determine the solubility and impurity profiles of BTS and BTS(OMe) in solution, the following experiments were performed using the following protocols. Briefly, BTS test article preparation(s) were prepared by dissolving in water and adjusting pH to 7-7.5 by NaOH.
BTS(OMe) test article preparation(s) were prepared by dissolving in water and gradually raising pH by adding NaOH until all the crystals are solubilized. The pH at that point is approximately 9.5-10. Fructose is then added at the ratio of 1.1 mol/mol BTS(OMe). The pH is adjusted to 7-7.5 using concentrated HCl.
Both solutions were adjusted to 100 mg/mL and 0.2 μm filtered. The actual concentrations are confirmed by ICP OES.

[4] = system: FaDu, Detroit 562, MeWo, A549, HCC-1954 xenografts; assay: Boron uptake across panel of established tumor xenografts; assay type: in vivo; conditions: BTS or BTS(OMe) 800 mg/kg vs BPA 200 mg/kg, 2 hours post-injection, SCID CB-17 mice
Source text: In a further experiment, to ascertain whether BTS and BTS(OMe) are taken up to a relatively higher degree across cancer multiple cell lines which results in a higher boron concentration, the following protocol was used. Briefly, a panel of five (5) human cancer cell lines derived from multiple indications that would be considered for treatment using BNCT were used. Specifically, the panel consisted of Head and Neck Carcinomas (FaDu and Detroit 562), melanoma (MeWo), non-small cancer lung carcinoma (A549), and breast carcinoma (HCC-1954).
Using standard methods, subcutaneously implanted established mouse xenografts were grown in SCID CB-17 mice. The treatment began when the tumors reached 150-200 mm^3 as follows: the BTS or BTS(OMe) arms received 800 mg/kg and the control BPA arm received 200 mg/kg. The animals were euthanized at two (2) hours post-injection. The tumors were harvested, weighed, and digested using the standard methods. The concentration of boron was measured by ICP OES and plotted as microgram per gram tissue. […] However, the absolute uptake varied between the cell lines with the overall lowest uptake observed in the Detroit 562 tumors.

CT26 cells = assay: Boron uptake in CT26 cells in vitro (ICP-OES); assay type: cell-based, mouse; conditions: CT26 cell line, single experiment
Source text: As a result, it accumulates boron compounds at significant levels. Additionally, FaDu also grows well as an established xenograft model in SCID mice. This disclosure endeavored to determine whether a mouse-derived cancer cell line, CT-26, is suitable for BNCT experiments. By way of background, CT26 is a syngeneic model, it can be implanted and established in wild-type BalbC mice and provides a convenient and low-cost model.
Briefly, CT26 cells were harvested and washed with PBS two (2) times, and the count was adjusted 2 million/ml in HBSS media Boron compounds were then added to cells at the final concentration of 2.5 mM in HBSS and the cells were incubated at 37° C. in a humidified 5% CO2 atmosphere for 2.0 hrs. with shaking. Following a two (2) hr. incubation, cells were harvested and washed two times with ice cold PBS. Cells were suspended in 1 ml ice cold PBS and a portion (50 NI) was lysed in RIPA buffer and protein content was determined by BCA assay.
The remaining portion (950 NI) was subjected to nitric acid lysis (66.7% acid at 80° C.) and boron measurements were carried out using ICP-OES.
Low expression of LAT-1 in CT26 estimated by Western blot is consistent with the overall reduced boron uptake. Each bar represents three (3) independent experiments performed on different days (FaDu) or a single experiment (CT-26) Error bars represent 1 standard deviation. […]

[5] = system: FaDu, A375, SCC-25, A253, and Detroit 562; assay: BTS uptake across head and neck cancer and melanoma cell lines; assay type: cell-based, human; conditions: 2 hours treatment, each of the five cell lines
Description: To evaluate the uptake of BTS in multiple head and neck cancer cell lines as well as melanoma cell lines the following experiments were performed using the following protocols.
Briefly, five (5) human-derived cell lines (FaDu, A375, SCC-25, A253, and Detroit 562), all representing cancer indications relevant to BNCT treatment, were cultured, and treated with either BPA-fructose (the standard of care) or with BTS for two (2) hours. The cells were then washed to remove the compounds, harvested, and treated as per the protocol described above. Boron uptake was reported as μg boron per mg of cellular protein as determined by ICP OES and by the BCA assay, respectively.

LAT-1 [6] = biological target: T1, LAT-1; assay: Uptake competition assay with phenylalanine in FaDu cells; assay type: cell-based; design: endogenous in cells; host or cells: FaDu; conditions: 0.5 mM compound, Phe 0.01 to 20 mM, compared to BTS(OMe) or BPA
Description: To determine the ability for BTS and BTS(OMe) to mediate LAT-1, the following experiments were performed using the following protocols. Briefly, FaDu cells (2 million) were incubated in HBSS medium for two (2) hrs. at 37° C. with 0.5 mM of either (i) BTS, (ii) BTS(OMe), or (iii) BPA-fructose in the absence (19A) or presence of increasing concentrations of LAT-1 specific inhibitor JPH203-dichloride, (19A) or phenylalanine, a competitor (19B). Following incubation, the cells were harvested and washed with cold PBS. The amount of each compound that was taken up by the cells was determined by ICP OES. The IC50 determination was made by a three (3) parameter inhibitor non-linear regression fit using Prism (Graph Pad) software.
In the competition assay, increased concentration of Phe in the range of 0.01 to 20 mM was used. […] (FIG. 19).
Target sequence in this assay (Q01650 whole entry): as the sequence (Q01650 whole entry, species assumed) above
Target sequence in this assay (P08195 102-630 partner): as the sequence (P08195 102-630 partner, species assumed) above

[7] = system: F98 and C6 rat glioma cell lines; assay: BTS uptake using rat glioma cell lines; assay type: cell-based; conditions: 2 hr, F98 and C6 cells
Source text: Rat glioma cell lines were extensively used as orthotopic cancer models to conduct reactor based BNCT studies using either innovative boron carriers or a myriad of ways to enhance the uptake of BPA, including convection enhanced delivery of boronoporphyrins (Yang, et al., doi:10.1016/j.apradiso.2014.01.002), or pre-treatment of tumors with L-DOPA (Barth, et al., J Neurooncol. 2009; 94:299-312).
In this experiment, used cultured cell lines to confirm that BTS can be used for efficient boron delivery into both F98 and C6 rat glioma cell lines. […] This compound is expected to cross BBB and will be relevant for BNCT of brain tumors.

Row | Compound | CL [3] | Vss [3] | solubility in water (Solubility in water) | amount of boron in tumors across xenograft panel [4] | effect of LAT-1 inhibitor on boron accumulation of borylated tyrosine analogs (LAT-1 [1]) | intracellular boron concentration (FaDu cells) | also measured
1 | NC1(C(=O)O)CC2CCC1C2 (stereo not shown) [BCH, 2-aminobicyclo-(2,2,1)-heptane-2-carboxylic acid] |  |  |  |  | diminished boron accumulations in a concentration-dependent fashion |  | 
2 | N[C@@H](Cc1ccc(B(O)O)cc1)C(=O)O [BPA, 4-Borono-L-phenylalanine, reference compound] | 0.00011 mg/(μg/mL)/min | 0.0289 mg/µg/mL |  |  |  | 1097 ± 59 µg/g | intracellular boron once boron source is removed and replaced with fresh medium (cellular retention) [2]: decreases sharply
3 | Nc1cc(COc2c(Cl)cc(C[C@H](N)C(=O)O)cc2Cl)c2oc(-c3ccccc3)nc2c1 [JPH203] |  |  |  |  | diminished boron accumulations in a concentration-dependent fashion |  | 

Second part, led by results:

Row | CL [3] | Vss [3] | solubility in water (Solubility in water) | amount of boron in tumors across xenograft panel [4] | Compound | effect of LAT-1 inhibitor on boron accumulation of borylated tyrosine analogs (LAT-1 [1]) | intracellular boron concentration (FaDu cells) | also measured
4 |  |  | very soluble in water | highest | COc1ccc(C[C@H](N)C(=O)O)cc1B(O)O [BTS(OMe)] |  | 1005 ± 113 µg/g | biodistribution compared to BPA (subcutaneous FaDu tumors; BPA-fructose 200): remarkably similar in its biodistribution to BPA; accumulation in kidney or pancreas (subcutaneous FaDu): does not accumulate
5 | 0.000304 mg/(μg/mL)/min | 0.0252 mg/µg/mL | very soluble in water | highest | N[C@@H](Cc1ccc(O)c(B(O)O)c1)C(=O)O [BTS] |  | 1700 ± 133 µg/g | uptake in murine pancreas (subcutaneous FaDu tumors): exceedingly high uptake; increase of tumor to blood ratio between 30 and 60 min (subcutaneous FaDu tumors; FaDu xenografts): more than two-fold; decline of boron in the kidney (subcutaneous FaDu tumors; from initial time point of 5 min): considerably slower; amount of compound internalized in CT26 less than in FaDu (CT26 cells): more pronounced; intracellular boron concentration higher compared to BPA-fructose (FaDu cells; equimolar concentrations): 60%; boron uptake compared to BPA-fructose [5]: superior uptake; IC50 of phenylalanine competition of compound uptake (LAT-1 [6]): higher IC50; boron concentration achieved, BTS compared to BPA-fructose [7]: > 2 fold; pharmacokinetic profile ([3]; saline formulation, i.v.): bi-phasic pharmacokinetics
